Experimental data taken from patent EP3263567A1, “CARBOXAMIDE-SUBSTITUTED PYRAZOLES AND TRI(HETERO)ARYL-PYRAZOLES FOR USE IN METHODS OF TREATING AND / OR PREVENTING CARDIOVASCULAR DISEASES AND / OR COMORBIDITIES THEREOF” (AiCuris Anti-infective Cures GmbH, priority 2016, dated 2018).

Assays:
[1] = biological target: T1, Nav1.5 (Homo sapiens, UniProt Q14524); experiment: Whole-cell patch-clamp, Nav1.5 currents in stably transfected CHO cells; type: cell-based
T1 construct: expressed in transfected cells; host or cells: CHO (ATCC CCL-61), stably transfected; selection with Geneticin and Puromycin
Procedure: (§1) [drawing 92] i.e. 4-[5-[3-Chloro-5-(trifluoromethoxy) phenyl]-1-(pyridin-3-yl)-1H-pyrazol-3-yl]-5,6-dihydro-7H-pyrrolo[3,4-d]pyrimidin-7-one, was tested for its effects on human Nav1.5, Cav1.2, Kv1.5, and HCN4 currents recorded from stably transfected CHO cells. The effect of four concentrations of this compound on these currents was investigated.
(§2) The whole-cell patch-clamp technique was used to investigate the effect of Compound A on the currents of Nav1.5, Kv1.5, Cav1.2 and HCN4 channels, expressed in CHO cells (ATCC, CCL-61). Compound A was tested at concentrations of 200 nM, 600 nM, 2000 nM and 6000 nM. For all ion channels 0.1% DMSO was used as vehicle and ZD7288 as suitable blockers were applied to assure accuracy of the method. The selection antibiotics can be dervied from the Table below:
(§3) Concentrations of 200 nM, 600 nM, 2000 nM and 6000 nM of Compound A were tested. […]
(§4) The 35 mm culture dishes upon which cells were seeded at a density allowing single cells to be recorded were placed on the dish holder of the microscope and continuously perfused (at approximately 1 mL/min) with the bath solution described in section 4.7. […]
(§5) As soon as a stable seal could be established outward tail currents were measured upon pulses described in the Table below: […]
(§6) Values in Ampere (A) of the peak amplitudes of outward tail currents were generated for each voltage step. […] The recorded current amplitudes at the steady state level of current inhibition were compared to those from control conditions measured in the pre-treatment phase of the same cell. The amount of current block was calculated as percentage of control. To determine whether the observed current inhibition was due to Compound A-interaction with the respective ion channel or due to current rundown, these residual currents were compared to those measured in vehicle treated cells. Data from at least two individual experiments were collected and the corresponding mean values and standard deviations were calculated. […]

[2] = pKa of compound A; type: physicochemical
[3] = Stability of compound A in solution; type: physicochemical
Procedure: The compound stock solutions were stored at 19°C to 30°C (room temperature). Test solutions were prepared freshly every day. Test solutions were prepared shortly before experimentation.
The Compound A stock solutions were prepared freshly every day of experimentation. Application of Compound A to the CHO cells was completed within one day. During this period, there was no observation indicating any instability of Compound A solved in vehicle. The effects observed on Nav1.5, Kv1.5, Cav1.2 and HCN4 channels of the Compound A dose formulations analyzed remained stable over several hours at room temperature.

[4] = biological target: T2, HCN4 (Homo sapiens, UniProt Q9Y3Q4); experiment: Whole-cell patch-clamp, HCN4 currents in stably transfected CHO cells; type: cell-based; set-up: expressed in transfected cells; host or cells: CHO (ATCC CCL-61), stably transfected; selection with Hygromycin and Geneticin
T2 sequence (Q9Y3Q4 1-1203): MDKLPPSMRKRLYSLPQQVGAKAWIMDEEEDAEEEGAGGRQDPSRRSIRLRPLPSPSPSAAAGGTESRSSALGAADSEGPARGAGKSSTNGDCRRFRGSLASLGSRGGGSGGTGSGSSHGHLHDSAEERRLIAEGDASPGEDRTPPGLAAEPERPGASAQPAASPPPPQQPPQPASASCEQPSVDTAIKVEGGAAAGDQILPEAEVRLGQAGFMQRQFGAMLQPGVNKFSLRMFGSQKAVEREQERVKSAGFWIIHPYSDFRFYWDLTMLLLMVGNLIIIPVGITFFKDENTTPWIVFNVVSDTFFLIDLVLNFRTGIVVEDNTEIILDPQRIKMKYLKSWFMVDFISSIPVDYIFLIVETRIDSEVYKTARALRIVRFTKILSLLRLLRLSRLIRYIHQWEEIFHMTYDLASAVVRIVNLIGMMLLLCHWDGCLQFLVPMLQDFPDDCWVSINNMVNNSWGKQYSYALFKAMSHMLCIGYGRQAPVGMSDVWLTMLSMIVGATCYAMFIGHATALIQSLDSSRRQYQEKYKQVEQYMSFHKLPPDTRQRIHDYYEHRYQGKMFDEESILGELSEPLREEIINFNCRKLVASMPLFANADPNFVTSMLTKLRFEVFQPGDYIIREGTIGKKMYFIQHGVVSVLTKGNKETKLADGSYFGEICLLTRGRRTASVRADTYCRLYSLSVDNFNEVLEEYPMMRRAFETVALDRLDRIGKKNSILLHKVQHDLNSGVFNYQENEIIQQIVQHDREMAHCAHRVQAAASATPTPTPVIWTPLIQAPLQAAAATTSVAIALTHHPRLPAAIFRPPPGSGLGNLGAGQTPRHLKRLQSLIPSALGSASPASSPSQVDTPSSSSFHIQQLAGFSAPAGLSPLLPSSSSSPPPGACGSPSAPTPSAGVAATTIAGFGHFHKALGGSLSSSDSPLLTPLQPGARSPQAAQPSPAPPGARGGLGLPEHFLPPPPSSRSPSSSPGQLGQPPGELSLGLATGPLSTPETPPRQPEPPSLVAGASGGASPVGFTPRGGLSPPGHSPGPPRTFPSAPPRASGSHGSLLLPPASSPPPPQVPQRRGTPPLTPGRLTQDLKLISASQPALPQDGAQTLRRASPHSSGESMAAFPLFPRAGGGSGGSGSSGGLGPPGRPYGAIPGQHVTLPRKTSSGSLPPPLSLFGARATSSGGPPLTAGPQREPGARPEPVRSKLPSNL
Procedure: as §1, §2, §3, §4, §5, §6

T1 sequence (Q14524 whole entry): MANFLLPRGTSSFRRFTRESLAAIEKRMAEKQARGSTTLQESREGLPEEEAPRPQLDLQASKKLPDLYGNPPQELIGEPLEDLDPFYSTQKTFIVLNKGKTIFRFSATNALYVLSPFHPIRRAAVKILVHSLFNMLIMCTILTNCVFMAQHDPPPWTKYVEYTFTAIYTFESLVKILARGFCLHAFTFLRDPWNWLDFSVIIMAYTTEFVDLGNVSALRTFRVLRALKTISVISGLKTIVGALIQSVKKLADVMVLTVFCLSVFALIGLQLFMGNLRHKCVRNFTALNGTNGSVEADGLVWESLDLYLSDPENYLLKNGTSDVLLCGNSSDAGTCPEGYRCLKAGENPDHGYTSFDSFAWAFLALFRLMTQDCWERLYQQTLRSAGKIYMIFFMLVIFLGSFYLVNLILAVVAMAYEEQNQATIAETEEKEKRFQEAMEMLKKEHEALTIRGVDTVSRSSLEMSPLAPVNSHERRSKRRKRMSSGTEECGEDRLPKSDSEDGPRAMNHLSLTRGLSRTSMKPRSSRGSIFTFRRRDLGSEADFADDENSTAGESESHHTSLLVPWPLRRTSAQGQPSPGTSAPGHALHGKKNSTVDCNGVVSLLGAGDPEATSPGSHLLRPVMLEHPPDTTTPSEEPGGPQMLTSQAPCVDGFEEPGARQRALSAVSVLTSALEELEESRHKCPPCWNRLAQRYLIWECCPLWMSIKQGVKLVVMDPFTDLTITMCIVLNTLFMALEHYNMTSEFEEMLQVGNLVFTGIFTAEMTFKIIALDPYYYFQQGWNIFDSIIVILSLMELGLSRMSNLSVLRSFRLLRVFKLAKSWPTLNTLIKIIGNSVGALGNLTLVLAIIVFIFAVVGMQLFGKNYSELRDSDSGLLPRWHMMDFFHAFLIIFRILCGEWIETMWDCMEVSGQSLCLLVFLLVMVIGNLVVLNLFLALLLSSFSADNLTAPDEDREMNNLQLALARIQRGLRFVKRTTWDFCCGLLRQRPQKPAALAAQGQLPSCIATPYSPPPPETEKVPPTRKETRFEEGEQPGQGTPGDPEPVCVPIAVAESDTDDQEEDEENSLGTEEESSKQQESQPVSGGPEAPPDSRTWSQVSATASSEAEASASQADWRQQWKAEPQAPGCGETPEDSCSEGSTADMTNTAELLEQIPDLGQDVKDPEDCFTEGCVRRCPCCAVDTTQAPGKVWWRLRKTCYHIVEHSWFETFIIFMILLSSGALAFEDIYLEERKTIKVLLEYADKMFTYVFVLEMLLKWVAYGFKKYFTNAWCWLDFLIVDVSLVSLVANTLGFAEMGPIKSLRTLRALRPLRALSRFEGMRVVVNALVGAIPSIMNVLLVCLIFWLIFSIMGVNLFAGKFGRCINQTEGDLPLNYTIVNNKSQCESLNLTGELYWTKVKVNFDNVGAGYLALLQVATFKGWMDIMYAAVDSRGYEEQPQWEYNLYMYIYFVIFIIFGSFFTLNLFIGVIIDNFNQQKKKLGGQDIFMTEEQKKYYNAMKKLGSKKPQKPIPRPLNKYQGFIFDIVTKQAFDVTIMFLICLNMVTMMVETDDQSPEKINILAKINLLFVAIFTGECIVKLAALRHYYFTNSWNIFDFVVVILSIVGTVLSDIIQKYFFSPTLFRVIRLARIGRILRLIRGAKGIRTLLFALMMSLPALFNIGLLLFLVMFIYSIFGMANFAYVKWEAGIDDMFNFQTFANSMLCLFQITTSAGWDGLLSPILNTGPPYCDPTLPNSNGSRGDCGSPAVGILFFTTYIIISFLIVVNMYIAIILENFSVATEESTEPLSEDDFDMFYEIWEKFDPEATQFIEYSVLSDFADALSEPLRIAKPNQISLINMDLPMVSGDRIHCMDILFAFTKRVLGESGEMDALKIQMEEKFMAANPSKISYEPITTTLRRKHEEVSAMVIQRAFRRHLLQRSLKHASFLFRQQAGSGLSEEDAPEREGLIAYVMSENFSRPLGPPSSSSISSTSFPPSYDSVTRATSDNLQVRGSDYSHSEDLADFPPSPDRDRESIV

Compound: O=C1NCc2c1ncnc2-c1cc(-c2cc(Cl)cc(OC(F)(F)F)c2)n(-c2cccnc2)n1 [Compound A, 4-[5-[3-Chloro-5-(trifluoromethoxy)phenyl]-1-(pyridin-3-yl)-1H-pyrazol-3-yl]-5,6-dihydro-7H-pyrrolo[3,4-d]pyrimidin-7-one]
- reduction of the current amplitude (Nav1.5, fast inactivated state) ([1]; at ≤ 6 µM): more than 30%
- IC50 ([1]; highest concentration tested 6,000 nM, read-out: IC50 (Nav1.5, fast inactivated state)): > 6000 nM
- interaction with ion channels of Nav ([1]; summary statement): do not interact with other ion channels of Nav, Kav, and Cav substantially
- pKa [2]: 2.3
- stability in aqueous and physiological fluids and organic solvents [3]: stable
- stability of dose formulations in bath solution ([3]; several hours at room temperature): no observations indicating any instability
- reduction of the current amplitude (HCN4) ([4]; at ≤ 6 µM): more than 30%
- Hill coefficient (HCN4) ([4]; stably transfected CHO cells): 1.15
- IC50 ([4]; stably transfected CHO cells, 200, 600, 2000, 6000 nM tested): 879 nM
